Assay results taken from patent US20250339409A1, “USES OF PAN BET INHIBITORS” (VYNE THERAPEUTICS INC., priority 2021, published 2025).

System: imiquimod-induced psoriasis
Test: Imiquimod-induced psoriasis (Th17 inflammation) model in mice, topical treatment once daily D7-D13: PASI, modified PASI, body weight, use of enrichment, TEWL
Assay type: in vivo
Design: key to Mean score use enrichment: 0 = no use of dental rolls to 4 = use of all 4; key to PASI Mean score values: sum of erythema, induration, peeling scores, each 0-3 (0 = none)
Method: Thirty-six (36) female Balb/c mice are weighed and randomly divided into 9 groups (n=4) according to body weight on D1. For mice of native group 1 and tolerance groups 8 and 9, no induction of psoriasis is performed between D1 and D13. Psoriasis is induced in groups 2 to 7 by once daily topical application for 13 days (from day 1 to day 13) of 65 mg of Aldara™ cream (5.0% imiquimod) onto the shaved and epilated back of mice. Before the first treatment, a second randomization of mice of the 6 imiquimod-induced psoriasis groups is performed according to the severity of psoriasis (PASI), and also the body weight of mice. Starting on day 7 and until day 13, 100 mg of test formulations […] and 65 mg of vehicle (groups 1 and […]) are topically administered once daily for 7 consecutive days onto the shaved back skin of mice. Several measurements are taken during treatment period from day 7 to day 14: psoriasis index (PASI), body weight, use of enrichment and mortality. At the end of treatment period, TEWL is assessed, and blood and skin samples are collected. Histological analysis of skin samples is used for microscopic scoring of psoriasis and the determination of the thickness of parakeratosis and epidermis and blood analysis is used for assessing the level of proinflammatory biomarkers (cytokines assays). The effect of treatment of psoriasis induced mice with BETi formulations at the four dose levels are compared with Dermoval® cream containing 0.05% clobetasol propionate (reference) and vehicle (positive control) and also with healthy mice treated with vehicle (negative control).
PASI scoring takes into account the following 3 parameters: the presence of erythema on the skin, induration of the skin (thickening) and peeling of the skin at the area of the induction of psoriasis.
The presence of erythema on the skin at the area of induction of psoriasis with the following scoring grid: • 0=no or no more erythema on the skin, • 1=weak erythema on the skin, • 2=moderate erythema on the skin, • 3=important erythema on the skin.
The presence of induration of the skin at the area of induction of psoriasis with the following scoring grid: • 0=no or no more induration of the skin, • 1=weak induration of the skin, • 2=moderate induration of the skin, • 3=important induration of the skin.
The presence of peeling of the skin at the area of induction of psoriasis with the following scoring grid: • 0=no or no more dryness/peeling of the skin, • 1=weak dryness/peeling of the skin, • 2=moderate dryness/peeling of the skin, • 3=important dryness/peeling of the skin.
The sum of the mean scores of these 3 parameters result in the mean PASI score.
One of the issues with a steroid is that it causes skin thinning and continues to have an effect on no longer inflamed skin and the model set up and measurements above are not designed to reflect this negative effect. Therefore, a modified PASI (mPASI) is calculated in the same the manner as mean PASI score but excludes the scoring for induration (thickening of the skin).
Mice are weighed three times during the week of D1 to D7, and then daily during the week of D7 to D13, as well as on the day D14 when they are sacrificed. It should be noted that a characteristic body weight loss of mice is observed after the start of the induction of psoriasis, mainly during the first days following it. The body weight loss can reach between 10 to 15%.
For the duration of the experiment, dental rolls are used as enrichment and placed in each cage and replaced twice. Between D1 and D7, the number of dental rolls used by animals are determined twice in the morning, and are determined daily during D7 to D14, at the time of PASI or the tolerance assessment. The use of dental rolls is scored from 0=no use of dental rolls to 4=use of the 4 dental rolls. In the case where only half of a dental roll is used, a score of 0.5 is assigned. […]

Compound: Cn1cc(-c2cccc(O)c2Oc2ccccc2)c2cc[nH]c2c1=O [BETi1]
- Change in Modified PASI Mean score values (Table 1C, imiquimod-induced mice, treatment day 0, listed as BETi1 0.001%): 4.25
- Change in Modified PASI Mean score values (Table 1C, imiquimod-induced mice, treatment day 0, listed as BETi1 0.01%): 4.375
- Change in Modified PASI Mean score values (Table 1C, imiquimod-induced mice, treatment day 0, listed as BETi1 0.1%): 4.375
- Change in Modified PASI Mean score values (Table 1C, imiquimod-induced mice, treatment day 1, listed as BETi1 0.001%): 5.375
- Change in Modified PASI Mean score values (Table 1C, imiquimod-induced mice, treatment day 1, listed as BETi1 0.01%): 4
- Change in Modified PASI Mean score values (Table 1C, imiquimod-induced mice, treatment day 1, listed as BETi1 0.1%): 4.375
- Change in Modified PASI Mean score values (Table 1C, imiquimod-induced mice, treatment day 2, listed as BETi1 0.001%): 4.75
- Change in Modified PASI Mean score values (Table 1C, imiquimod-induced mice, treatment day 2, listed as BETi1 0.01%): 2.875
- Change in Modified PASI Mean score values (Table 1C, imiquimod-induced mice, treatment day 2, listed as BETi1 0.1%): 3.125
- Change in Modified PASI Mean score values (Table 1C, imiquimod-induced mice, treatment day 3, listed as BETi1 0.001%): 4.25
- Change in Modified PASI Mean score values (Table 1C, imiquimod-induced mice, treatment day 3, listed as BETi1 0.01%): 2.5
- Change in Modified PASI Mean score values (Table 1C, imiquimod-induced mice, treatment day 3, listed as BETi1 0.1%): 2
- Change in Modified PASI Mean score values (Table 1C, imiquimod-induced mice, treatment day 4, listed as BETi1 0.001%): 4
- Change in Modified PASI Mean score values (Table 1C, imiquimod-induced mice, treatment day 4, listed as BETi1 0.01%): 2.125
- Change in Modified PASI Mean score values (Table 1C, imiquimod-induced mice, treatment day 4, listed as BETi1 0.1%): 0.75
- Change in Modified PASI Mean score values (Table 1C, imiquimod-induced mice, treatment day 5, listed as BETi1 0.001%): 3.375
- Change in Modified PASI Mean score values (Table 1C, imiquimod-induced mice, treatment day 5, listed as BETi1 0.01%): 1
- Change in Modified PASI Mean score values (Table 1C, imiquimod-induced mice, treatment day 5, listed as BETi1 0.1%): 0.375
- Change in Modified PASI Mean score values (Table 1C, imiquimod-induced mice, treatment day 6, listed as BETi1 0.001%): 3
- Change in Modified PASI Mean score values (Table 1C, imiquimod-induced mice, treatment day 6, listed as BETi1 0.01%): 1.25
- Change in Modified PASI Mean score values (Table 1C, imiquimod-induced mice, treatment day 6, listed as BETi1 0.1%): 0.25
- Change in Modified PASI Mean score values (Table 1C, imiquimod-induced mice, treatment day 7, listed as BETi1 0.001%): 3
- Change in Modified PASI Mean score values (Table 1C, imiquimod-induced mice, treatment day 7, listed as BETi1 0.01%): 1
- Change in Modified PASI Mean score values (Table 1C, imiquimod-induced mice, treatment day 7, listed as BETi1 0.1%): 0.25
- Change in Modified PASI Mean score values (Table 1D, relative to day 0 = 100, treatment day 0): 100
- Change in Modified PASI Mean score values (Table 1D, relative to day 0 = 100, treatment day 1, listed as BETi1 0.001%): 126.47
- Change in Modified PASI Mean score values (Table 1D, relative to day 0 = 100, treatment day 1, listed as BETi1 0.01%): 91.43
- Change in Modified PASI Mean score values (Table 1D, relative to day 0 = 100, treatment day 1, listed as BETi1 0.1%): 100
- Change in Modified PASI Mean score values (Table 1D, relative to day 0 = 100, treatment day 2, listed as BETi1 0.001%): 111.76
- Change in Modified PASI Mean score values (Table 1D, relative to day 0 = 100, treatment day 2, listed as BETi1 0.01%): 65.71
- Change in Modified PASI Mean score values (Table 1D, relative to day 0 = 100, treatment day 2, listed as BETi1 0.1%): 71.43
- Change in Modified PASI Mean score values (Table 1D, relative to day 0 = 100, treatment day 3, listed as BETi1 0.001%): 100
- Change in Modified PASI Mean score values (Table 1D, relative to day 0 = 100, treatment day 3, listed as BETi1 0.01%): 57.14
- Change in Modified PASI Mean score values (Table 1D, relative to day 0 = 100, treatment day 3, listed as BETi1 0.1%): 45.72
- Change in Modified PASI Mean score values (Table 1D, relative to day 0 = 100, treatment day 4, listed as BETi1 0.001%): 94.12
- Change in Modified PASI Mean score values (Table 1D, relative to day 0 = 100, treatment day 4, listed as BETi1 0.01%): 48.57
- Change in Modified PASI Mean score values (Table 1D, relative to day 0 = 100, treatment day 4, listed as BETi1 0.1%): 17.142
- Change in Modified PASI Mean score values (Table 1D, relative to day 0 = 100, treatment day 5, listed as BETi1 0.001%): 79.41
- Change in Modified PASI Mean score values (Table 1D, relative to day 0 = 100, treatment day 5, listed as BETi1 0.01%): 22.86
- Change in Modified PASI Mean score values (Table 1D, relative to day 0 = 100, treatment day 5, listed as BETi1 0.1%): 8.57
- Change in Modified PASI Mean score values (Table 1D, relative to day 0 = 100, treatment day 6, listed as BETi1 0.001%): 70.59
- Change in Modified PASI Mean score values (Table 1D, relative to day 0 = 100, treatment day 6, listed as BETi1 0.01%): 28.57
- Change in Modified PASI Mean score values (Table 1D, relative to day 0 = 100, treatment day 6, listed as BETi1 0.1%): 5.71
- Change in Modified PASI Mean score values (Table 1D, relative to day 0 = 100, treatment day 7, listed as BETi1 0.001%): 70.59
- Change in Modified PASI Mean score values (Table 1D, relative to day 0 = 100, treatment day 7, listed as BETi1 0.01%): 22.86
- Change in Modified PASI Mean score values (Table 1D, relative to day 0 = 100, treatment day 7, listed as BETi1 0.1%): 5.71
- Mean score use enrichment (imiquimod-induced mice, Before D 1, listed as BETi 0.001%): 4.00
- Mean score use enrichment (imiquimod-induced mice, Before D 1, listed as BETi 0.01%): 4.00
- Mean score use enrichment (imiquimod-induced mice, Before D 1, listed as BETi 0.1%): 4.00
- Mean score use enrichment (imiquimod-induced mice, Before D 1, listed as BETi 1.0%): 3.75
- Modified PASI Mean score values (imiquimod-induced mice, D 1): 0.00
- PASI Mean score values (imiquimod-induced mice, D 1): 0.00
- Mean score use enrichment (imiquimod-induced mice, D 1-D 8, listed as BETi 0.001%): 1.79
- Mean score use enrichment (imiquimod-induced mice, D 1-D 8, listed as BETi 0.01%): 1.61
- Mean score use enrichment (imiquimod-induced mice, D 1-D 8, listed as BETi 0.1%): 1.54
- Mean score use enrichment (imiquimod-induced mice, D 1-D 8, listed as BETi 1.0%): 2.56
- Mean body weights (imiquimod-induced mice, D 1, listed as BETi1 1.0%): 18.11
